Test results published in ChEMBL document CHEMBL3044788, “α-(Substituted-phenoxyacetoxy)-α-heterocyclylmethylphosphonates: synthesis, herbicidal activity, inhibition on pyruvate dehydrogenase complex (PDHc), and application as postemergent herbicide against broadleaf weeds” (J Agric Food Chem, 2013).

Key:
[1] = system: Eclipta prostrata; assay: Herbicidal activity against two to three-leaf stage Eclipta prostrata assessed as inhibition of plant growth at 450 g/ha in greenhouse by post-emergence herbicidal activity assay; format: functional; conditions: read-out: GI
[2] = system: Brassica rapa subsp. oleifera; assay: Herbicidal activity against two to three-leaf stage Brassica rapa subsp. oleifera assessed as inhibition of plant growth at 150 g/ha in greenhouse by postemergence herbicidal activity assay; format: functional; conditions: post-emergence, read-out: GI
[3] = system: Amaranthus retroflexus; assay: Herbicidal activity against 2 to 3 leaf stage Amaranthus retroflexus assessed as inhibition of plant growth at 450 g/ha in greenhouse by postemergence herbicidal activity assay; format: functional; conditions: post-emergence, read-out: GI
[4] = system: Brassica rapa subsp. oleifera; assay: Herbicidal activity against two to three-leaf stage Brassica rapa subsp. oleifera assessed as inhibition of plant growth at 450 g/ha in greenhouse by postemergence herbicidal activity assay; format: functional; conditions: post-emergence, read-out: GI
[5] = system: Eclipta prostrata; assay: Herbicidal activity against two to three-leaf stage Eclipta prostrata assessed as inhibition of plant growth at 150 g/ha in greenhouse by post-emergence herbicidal activity assay; format: functional; conditions: read-out: GI
[6] = system: Amaranthus retroflexus; assay: Herbicidal activity against 2 to 3 leaf stage Amaranthus retroflexus assessed as inhibition of plant growth at 150 g/ha in greenhouse by postemergence herbicidal activity assay; format: functional; conditions: post-emergence, read-out: GI
[7] = system: Abutilon theophrasti; assay: Herbicidal activity against two to three-leaf stage Abutilon theophrasti (velvetleaf) assessed as inhibition of plant growth at 450 g/ha in greenhouse by post-emergence herbicidal activity assay; format: functional; conditions: read-out: GI
[8] = system: Abutilon theophrasti; assay: Herbicidal activity against two to three-leaf stage Abutilon theophrasti (velvetleaf) assessed as inhibition of plant growth at 150 g/ha in greenhouse by post-emergence herbicidal activity assay; format: functional; conditions: read-out: GI
[9] = system: Brassica rapa subsp. oleifera; assay: Herbicidal activity against Brassica rapa subsp. oleifera assessed as inhibition of rape root growth at 450 g/ha by pre-emergence herbicidal activity assay; format: functional; conditions: read-out: GI
[10] = system: Brassica rapa subsp. oleifera; assay: Herbicidal activity against Brassica rapa subsp. oleifera assessed as inhibition of rape root growth; format: functional, organism-based
[11] = system: Brassica rapa subsp. oleifera; assay: Herbicidal activity against Brassica rapa subsp. oleifera assessed as inhibition of rape root growth at 450 g/ha by postemergence herbicidal activity assay; format: functional; conditions: post-emergence, read-out: GI

Compound | inhibition of growth at 450 g/ha [1] [%] | inhibition of growth at 150 g/ha [2] [%] | inhibition of growth at 450 g/ha [3] [%] | inhibition of growth at 450 g/ha [4] [%] | inhibition of growth at 150 g/ha [5] [%] | inhibition of growth at 150 g/ha [6] [%] | inhibition of growth at 450 g/ha [7] [%] | inhibition of growth at 150 g/ha [8] [%] | inhibition of growth at 450 g/ha [9] [%] | IC50 [10] [mM] | inhibition of growth at 450 g/ha [11] [%]
COP(=O)(OC)C(OC(=O)COc1ccc(Cl)cc1)c1cccs1 (centres undefined) | 30 | 70 | 80 | 90 | 70 | 70 | 85 | 70 |  |  | 
COP(=O)(OC)C(OC(=O)COc1ccc(C#N)cc1)c1ccco1 (centres undefined) |  | 40 |  |  | 30 | 50 |  | 40 |  |  | 
COP(=O)(OC)C(OC(=O)COc1cc(Cl)c(Cl)cc1Cl)c1ccco1 (centres undefined) |  | 85 |  |  | 80 | 75 |  | 75 |  |  | 
COP(=O)(OC)C(OC(=O)COc1ccc(F)cc1F)c1cccs1 (centres undefined) | 70 | 70 | 70 | 80 | 60 | 60 | 75 | 60 |  |  | 
COP(=O)(OC)C(OC(=O)COc1ccccc1F)c1cccs1 (centres undefined) |  | 0 |  |  | 20 | 15 |  | 0 |  |  | 
COP(=O)(OC)C(OC(=O)COc1ccc(Br)cc1)c1cccs1 (centres undefined) | 60 | 70 | 60 | 75 | 60 | 50 | 70 | 50 |  |  | 
COP(=O)(OC)C(OC(=O)COc1ccc(Cl)cc1F)c1ccco1 (centres undefined) |  | 75 |  |  | 70 | 60 |  | 70 |  |  | 
COP(=O)(OC)C(OC(=O)COc1ccc(Cl)cc1C)c1ccco1 (centres undefined) |  | 85 |  |  | 60 | 80 |  | 80 |  |  | 
COP(=O)(OC)C(OC(=O)COc1ccc(C(F)(F)F)cc1)c1ccco1 (centres undefined) |  | 0 |  |  | 0 | 0 |  | 0 |  |  | 
COP(=O)(OC)C(OC(=O)COc1cccc(Cl)c1Cl)c1cccs1 (centres undefined) | 85 | 0 | 60 | 40 | 40 | 40 | 40 | 0 |  |  | 
COP(=O)(OC)C(OC(=O)COc1cccc(C)c1)c1ccco1 (centres undefined) |  | 37 |  |  | 30 | 36 |  | 39 |  |  | 
COP(=O)(OC)C(OC(=O)COc1ccc(Br)cc1)c1ccco1 (centres undefined) |  | 75 |  |  | 60 | 60 |  | 40 |  |  | 
COP(=O)(OC)C(OC(=O)COc1cc(Cl)c(Cl)cc1Cl)c1cccs1 (centres undefined) | 50 | 80 | 90 | 95 | 80 | 80 | 85 | 80 |  |  | 
COP(=O)(OC)C(OC(=O)COc1ccc(Cl)c(C)c1)c1ccco1 (centres undefined) |  | 80 |  |  | 75 | 80 |  | 80 |  |  | 
COP(=O)(OC)C(OC(=O)COc1ccccc1Cl)c1cccs1 (centres undefined) | 85 | 0 | 50 | 30 | 0 | 0 | 40 | 0 |  |  | 
COP(=O)(OC)C(OC(=O)COc1ccccc1Cl)c1ccco1 (centres undefined) |  | 40 |  |  | 30 | 40 |  | 0 |  |  | 
COP(=O)(OC)C(C)=O [DIMETHYL ACETYLPHOSPHONATE] |  |  |  |  |  |  |  |  | 34 | 1.88 | 45
COP(=O)(OC)C(OC(=O)COc1ccc(C#N)cc1)c1cccs1 (centres undefined) | 60 | 30 | 40 | 40 | 0 | 40 | 40 | 30 |  |  | 

Compound | inhibition of growth at 450 g/ha [1] [%] | inhibition of growth at 150 g/ha [2] [%] | inhibition of growth at 450 g/ha [3] [%] | inhibition of growth at 450 g/ha [4] [%] | inhibition of growth at 150 g/ha [5] [%] | inhibition of growth at 150 g/ha [6] [%] | inhibition of growth at 450 g/ha [7] [%] | inhibition of growth at 150 g/ha [8] [%] | inhibition of growth at 450 g/ha [9] [%] | IC50 [10] [mM] | inhibition of growth at 450 g/ha [11] [%]
COP(=O)(OC)C(=O)c1ccco1 |  |  |  |  |  |  |  |  | 56 | 0.237 | 50
COP(=O)(OC)C(OC(=O)COc1ccccc1)c1ccco1 (centres undefined) |  | 28 |  |  | 31 | 6 |  | 22 |  |  | 
COP(=O)(OC)C(OC(=O)COc1ccc(Cl)cc1)c1ccco1 (centres undefined) |  | 75 |  |  | 70 | 70 |  | 75 |  |  | 
COP(=O)(OC)C(OC(=O)COc1cccc(Cl)c1Cl)c1ccco1 (centres undefined) |  | 30 |  |  | 35 | 25 |  | 20 |  |  | 
COP(=O)(OC)C(OC(=O)COc1ccc(C)cc1)c1ccco1 (centres undefined) |  | 36 |  |  | 30 | 23 |  | 32 |  |  | 
COP(=O)(OC)C(OC(=O)COc1ccc(Cl)c(C)c1)c1cccs1 (centres undefined) | 70 | 0 | 60 | 60 | 50 | 50 | 60 | 0 |  |  | 
COP(=O)(OC)C(OC(=O)COc1cccc(C)c1C)c1cccs1 (centres undefined) | 70 | 0 | 40 | 0 | 0 | 40 | 0 | 0 |  |  | 
COP(=O)(OC)C(OC(=O)COc1ccc(Cl)cc1Cl)c1cccs1 (centres undefined) | 100 | 90 | 100 | 100 | 80 | 90 | 100 | 90 |  |  | 
COP(=O)(OC)C(OC(=O)COc1ccc(Cl)cc1C)c1cccs1 (centres undefined) | 100 | 80 | 100 | 95 | 75 | 80 | 90 | 60 |  |  | 
COP(=O)(OC)C(OC(=O)COc1cccc(C(F)(F)F)c1)c1cccs1 (centres undefined) |  | 30 |  |  | 15 | 20 |  | 20 |  |  | 
COP(=O)(OC)C(OC(=O)COc1cccc(C)c1C)c1ccco1 (centres undefined) |  | 40 |  |  | 30 | 50 |  | 50 |  |  | 
COP(=O)(OC)C(OC(=O)COc1ccc(Cl)cc1F)c1cccs1 (centres undefined) | 90 | 70 | 75 | 75 | 70 | 70 | 75 | 70 |  |  | 
COP(=O)(OC)C(OC(=O)COc1ccc(F)cc1F)c1ccco1 (centres undefined) |  | 60 |  |  | 40 | 50 |  | 40 |  |  | 
COP(=O)(OC)C(OC(=O)COc1ccccc1F)c1ccco1 (centres undefined) |  | 75 |  |  | 60 | 60 |  | 40 |  |  | 
COP(=O)(OC)C(OC(=O)COc1ccc(F)cc1Cl)c1cccs1 (centres undefined) | 85 | 75 | 100 | 95 | 80 | 90 | 90 | 70 |  |  | 
COP(=O)(OC)C(OC(=O)COc1cccc(C(F)(F)F)c1)c1ccco1 (centres undefined) |  | 0 |  |  | 0 | 0 |  | 0 |  |  | 
COP(=O)(OC)C(OC(=O)COc1ccc(F)cc1Cl)c1ccco1 (centres undefined) |  | 85 |  |  | 75 | 90 |  | 75 |  |  | 
COP(=O)(OC)C(OC(=O)COc1ccc(C(F)(F)F)cc1)c1cccs1 (centres undefined) |  | 20 |  |  | 30 | 20 |  | 15 |  |  | 
